What all share (format): cell-based
For data set [1], the system named is PC12 cells. Nature of the data set: Effect of the compounds on viability of PC12 cells. To be noted: final concentration 50 μM, FIGS. 12A to 12C. Here is the method: (§1) In one example embodiment, effects of the Sativamide A and the Sativamide B ER stress-induced neurotoxicity on a neuroblastoma cell model (PC12 cells) are tested. PC-12 cells are purchased from the American Type Culture Collection (ATCC). PC-12 cells are cultured in DMEM medium (Invitrogen) supplemented with 100 U/ml penicillin, 100 μg/mL streptomycin, and 10% horse serum and 5% fetal bovine serum (Gibco, Carlsbad, USA). The cells are incubated at 37° C. in a humidified atmosphere of 5% CO2 and 95% air. PC12 cells are seeded into 96-well culture plates (5.0×10^3 cells/well) and cultured under standard conditions for 12 h. Cells are then treated with the Sativamide A and the Sativamide B at concentrations of 12.5 μM, 25 μM and 50 μM or a vehicle for another 12 h. After treatment, the whole medium is replaced with fresh medium containing tunicamycin (Tm) (0.1 nM or 1.0 μM) or thapsigargin (Tg) (10 nM or 100 nM) and the cells are incubated for additional 48 h. After incubation, supernatant is changed by fresh medium and thiazolyl blue tetrazolium bromide (MTT) is given at a concentration of 0.5 mg/mL. After incubation at 37° C. for 4 h, the absorbance is measured at 570 nm with a micro-plate reader.

Data set [2] concerns SH-SY5Y cells. The data set is described as follows: MTT assay and microscopy, Tg-induced cytotoxicity in SH-SY5Y cells. Particulars: for Tg-induced cell death and cell growth (microscopic observations): SH-SY5Y cells pre-treated with 50 μM, FIG. 13A; for ER stress-mediated Tg-induced cytotoxicity in SH-SY5Y cells (MTT assay): pre-treatment 12.5, 25, 50 μM for 12 h, then Tg 48 h, FIG. 13C. Here is the method: (§2) In one example embodiment, effects of the Sativamide A and the Sativamide B on ER stress-induced neurotoxicity on a neuroblastoma cell models (SH-SY5Y cells) are tested. SH-SY5Y cells are purchased from the American Type Culture Collection (ATCC). SH-SY5Y cells are cultured in 1:1 mixture of DMEM and F12 medium containing 10% fetal bovine serum (Gibco, Carlsbad, USA). SH-SY5Y cells are incubated at 37° C. in a humidified atmosphere of 5% CO2 and 95% air. SH-SY5Y cells are seeded into 96-well culture plates (5.0×10^3 cells/well) and cultured under standard conditions for 12 h. Cells are then treated with the Sativamide A and the Sativamide B at concentrations of 12.5 μM, 25 μM and 50 μM or a vehicle for another 12 h. After treatment, the whole medium is replaced with fresh medium containing Tm (0.1 or 1.0 μM) or Tg (10 or 100 nM) and cells are incubated for additional 48 h. After incubation, supernatant is changed by fresh medium and MTT is given at a concentration of 0.5 mg/mL. After incubation at 37° C. for 4 h, the absorbance is measured at 570 nm with a micro-plate reader.

Data set [3] deals with PC12 cells. Nature of the data set: MTT assay, thapsigargin (Tg)-induced cytotoxicity in PC12 cells. To be noted: pre-treatment 12.5, 25, 50 μM for 12 h, then Tg 48 h; FIG. 12C. The protocol: as §1
A general note: Tetrazolium dyes change colour on reduction, which living cells bring about.

For data set [4], the system named is SH-SY5Y cells. The data set is described as follows: Effect of the compounds on viability of SH-SY5Y cells. To be noted: final concentration 50 μM, FIGS. 13A to 13C. Here is the method:
as §2

In data set [5] the test system is SH-SY5Y cells. The data set is described as follows: MTT assay, Tm-induced cytotoxicity in SH-SY5Y cells (FIG. 13B). To be noted: pre-treatment 12.5, 25, 50 μM for 12 h, then inducer 48 h. Here is the method: as §2
The subject of data set [6] is PC12 cells. The data set is described as follows: MTT assay and microscopy, tunicamycin (Tm)-induced cytotoxicity in PC12 cells. Particulars: for cell death and cell growth induced by Tm (microscopic observations): PC12 cells pre-treated with 50 μM, FIG. 12A; for Tm-induced PC12 cell toxicity (MTT assay): pre-treatment 12.5, 25, 50 μM for 12 h, then Tm 48 h, FIG. 12B. Here is the method: as §1

Regarding `O=C(NCCc1ccc(O)cc1)C1=C[C@]23C=CC(=O)[C@@]2(O)c2cc(O)c(O)cc2[C@@H]3[C@H]1C(=O)NCCc1ccc(O)cc1` [Sativamide A], the “adverse effects on cell viability” value in data set [1] was “no adverse effects on cell viability”. Also, in data set [2], the “Tg-induced cell death and cell growth (microscopic observations)” value is reported as “markedly reduced”; the “ER stress-mediated Tg-induced cytotoxicity in SH-SY5Y cells (MTT assay)” value is reported as “suppress ER stress-mediated Tg-induced cytotoxicity in SH-SY5Y cells tin a dose-dependent manner”. Besides, the “ER stress-mediated cytotoxicity in PC12 cells induced by Tg (MTT assay)” value in data set [3] was “suppress ER stress-mediated cytotoxicity in PC12 cells that is induced by Tg in a dose-dependent manner”. In addition, the “adverse effects on cell viability” value in data set [4] is on record as “no adverse effects on cell viability”. Further, the “Tg-induced SH-SY5Y cell toxicity (MTT assay, FIG. 13B)” value in data set [5] is recorded as “mitigate the Tg-induced SH-SY5Y cell toxicity in a dose-dependent manner”. Also, in data set [6], the “cell death and cell growth induced by Tm (microscopic observations)” value is recorded as “markedly reduced”; the “Tm-induced PC12 cell toxicity (MTT assay)” value is given as “mitigate the Tm-induced PC12 cell toxicity in a dose-dependent manner”.
In the case of `CO[C@]12C(=O)C=C[C@]13C=C(C(=O)NCCc1ccc(O)cc1)[C@H](C(=O)NCCc1ccc(O)cc1)[C@@H]3c1cc(O)c(O)cc12` [Sativamide B, 10-methoxyl-sativamide A], the “adverse effects on cell viability” value in data set [1] was “no adverse effects on cell viability”. In data set [2], the “Tg-induced cell death and cell growth (microscopic observations)” value is on record as “markedly reduced”; the “ER stress-mediated Tg-induced cytotoxicity in SH-SY5Y cells (MTT assay)” value was “suppress ER stress-mediated Tg-induced cytotoxicity in SH-SY5Y cells tin a dose-dependent manner”. The “ER stress-mediated cytotoxicity in PC12 cells induced by Tg (MTT assay)” value in data set [3] is given as “suppress ER stress-mediated cytotoxicity in PC12 cells that is induced by Tg in a dose-dependent manner”. The “adverse effects on cell viability” value in data set [4] is “no adverse effects on cell viability”. In data set [5], the “Tg-induced SH-SY5Y cell toxicity (MTT assay, FIG. 13B)” value was “mitigate the Tg-induced SH-SY5Y cell toxicity in a dose-dependent manner”. Further, in data set [6], the “cell death and cell growth induced by Tm (microscopic observations)” value was “markedly reduced”; the “Tm-induced PC12 cell toxicity (MTT assay)” value was “mitigate the Tm-induced PC12 cell toxicity in a dose-dependent manner”.

Values taken from patent US10155721B2, “Lignanamides and a method of treating neurodegenerative diseases by using the same” (Macau University of Science and Technology, priority 2017, dated 2018).
